Measurements from patent US5494790A, “α-3 sialyltransferase” (Kyowa Hakko Kogyo Co., Ltd., priority 1991, dated 1996).

What was measured:
[1] = test system: α2→3 Sialyltransferase encoded in the plasmid pAMoPRSAL-35F (fused protein with the IgG-binding region of Staphylococcus aureus protein A); test: Sialyltransferase activity on IgG Sepharose, HPLC of pyridylaminated sugar chain substrates (Table 1); assay type: biochemical, human; details: for α2→3 Sialyltransferase activity, pAMoPRSAL-35F, pmol: 0.1 mM substrate, 5 μl IgG Sepharose, 5 mM CMP-sialic acid, 37° C., 2 hours; for acceptance as substrate by the α2→3 sialyltransferase (in words): IgG Sepharose from Namalwa cells having pAMoPRSAL-35F; for α2→3 Sialyltransferase activity, pAMoPRSAL-35F, Relative activity: activity to the substrate LNnT taken as 100
[2] = molecular target: T1, α2→3 sialyltransferase encoded in the plasmid pAMoPRSAW17-31F (fused protein with the IgG-binding region of Staphylococcus aureus protein A) (Homo sapiens, UniProt Q11206); test: Sialyltransferase activity on IgG Sepharose, HPLC of pyridylaminated sugar chain substrates (Table 2); assay type: biochemical; details: for α2→3 Sialyltransferase activity, pAMoPRSAW17-31F, pmol: 0.1 mM substrate, 5 μl IgG Sepharose, 5 mM CMP-sialic acid, 37° C., 2 hours; for acceptance as substrate by the α2→3 sialyltransferase (in words): IgG Sepharose from Namalwa cells having pAMoPRSAW17-31F; for α2→3 Sialyltransferase activity, pAMoPRSAW17-31F, Relative activity: activity to the substrate LNnT taken as 100
T1 construct: from 31st Phe to 329th Phe; made in house
T1 sequence (Q11206 35-333): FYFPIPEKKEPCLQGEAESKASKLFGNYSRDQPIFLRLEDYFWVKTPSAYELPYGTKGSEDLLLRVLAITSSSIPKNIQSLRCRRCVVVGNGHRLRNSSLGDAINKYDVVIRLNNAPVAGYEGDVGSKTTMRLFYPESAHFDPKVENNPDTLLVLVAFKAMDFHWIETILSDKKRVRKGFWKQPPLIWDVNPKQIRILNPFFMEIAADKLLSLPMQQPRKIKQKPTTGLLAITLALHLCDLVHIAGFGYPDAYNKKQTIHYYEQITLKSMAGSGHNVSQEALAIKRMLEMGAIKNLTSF

[3] = molecular target: T2, known α2→3 sialyltransferase (Rattus norvegicus, UniProt Q02734); details: activity to the substrate LNT taken as 100; cited from earlier work
T2 sequence (Q02734 1-374): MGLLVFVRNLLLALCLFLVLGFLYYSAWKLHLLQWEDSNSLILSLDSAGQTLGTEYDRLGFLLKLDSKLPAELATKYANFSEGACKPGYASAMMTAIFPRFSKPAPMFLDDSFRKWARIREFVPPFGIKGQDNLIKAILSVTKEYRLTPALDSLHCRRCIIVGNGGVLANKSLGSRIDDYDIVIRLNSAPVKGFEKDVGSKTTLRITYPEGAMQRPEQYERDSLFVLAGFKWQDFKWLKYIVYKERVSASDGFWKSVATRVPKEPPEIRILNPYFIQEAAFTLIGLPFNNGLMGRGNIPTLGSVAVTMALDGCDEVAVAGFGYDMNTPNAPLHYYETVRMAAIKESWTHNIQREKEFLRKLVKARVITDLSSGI

CC(=O)N[C@H]1[C@H](O[C@H]2[C@@H](O)[C@@H](CO)O[C@@H](O[C@H]3[C@H](O)[C@@H](O)C(O)O[C@@H]3CO)[C@@H]2O)O[C@H](CO)[C@@H](O)[C@@H]1O[C@@H]1O[C@H](CO)[C@H](O)[C@H](O)[C@H]1O (some centres unmarked) [LNT, Galβ1-3GlcNAcβ1-3Galβ1-4Glc]
α2→3 Sialyltransferase activity, pAMoPRSAL-35F, pmol [1]: 23.8 pmol | acceptance as substrate by the α2→3 sialyltransferase (in words) [1]: can take not only LNnT but also LNT as the substrate | α2→3 Sialyltransferase activity, pAMoPRSAL-35F, Relative activity [1]: 46 | α2→3 Sialyltransferase activity, pAMoPRSAW17-31F, pmol [2]: 47.5 pmol | acceptance as substrate by the α2→3 sialyltransferase (in words) [2]: can take not only LNnT but also LNT as the substrate | α2→3 Sialyltransferase activity, pAMoPRSAW17-31F, Relative activity [2]: 42 | Known α2→3 ST Relative activity (Table 1) [3]: 100 | Known α2→3 ST Relative activity (Table 2) [3]: 100

CC(=O)N[C@H]1[C@H](O[C@H]2[C@@H](O)[C@@H](CO)O[C@@H](O[C@H]3[C@H](O)[C@@H](O)C(O)O[C@@H]3CO)[C@@H]2O)O[C@H](CO)[C@@H](O[C@@H]2O[C@H](CO)[C@H](O)[C@H](O)[C@H]2O)[C@@H]1O (some centres unmarked) [LNnT, Galβ1-4GlcNAcβ1-3Galβ1-4Glc]
α2→3 Sialyltransferase activity, pAMoPRSAL-35F, pmol [1]: 51.3 pmol | acceptance as substrate by the α2→3 sialyltransferase (in words) [1]: can take not only LNnT but also LNT as the substrate | α2→3 Sialyltransferase activity, pAMoPRSAL-35F, Relative activity [1]: 100 | α2→3 Sialyltransferase activity, pAMoPRSAW17-31F, pmol [2]: 113.8 pmol | acceptance as substrate by the α2→3 sialyltransferase (in words) [2]: can take not only LNnT but also LNT as the substrate | α2→3 Sialyltransferase activity, pAMoPRSAW17-31F, Relative activity [2]: 100 | Known α2→3 ST Relative activity (Table 1) [3]: 6 | Known α2→3 ST Relative activity (Table 2) [3]: 6

CC(=O)N[C@H]1[C@H](O[C@H]2[C@@H](O)[C@@H](CO)O[C@@H](O[C@H]3[C@H](O[C@@H]4O[C@@H](C)[C@@H](O)[C@@H](O)[C@@H]4O)[C@@H](O)C(O)O[C@@H]3CO)[C@@H]2O)O[C@H](CO)[C@@H](O)[C@@H]1O[C@@H]1O[C@H](CO)[C@H](O)[C@H](O)[C@H]1O (some centres unmarked) [lacto-N-fucopentaose V]
α2→3 Sialyltransferase activity, pAMoPRSAL-35F, pmol [1]: 28.8 pmol | α2→3 Sialyltransferase activity, pAMoPRSAL-35F, Relative activity [1]: 56 | α2→3 Sialyltransferase activity, pAMoPRSAW17-31F, pmol [2]: 36.3 pmol | α2→3 Sialyltransferase activity, pAMoPRSAW17-31F, Relative activity [2]: 32

CC(=O)N[C@H]1[C@H](O[C@H]2[C@@H](O)[C@@H](CO)O[C@@H](O[C@H]3[C@H](O)[C@@H](O)C(O)O[C@@H]3CO)[C@@H]2O)O[C@H](CO)[C@@H](O[C@@H]2O[C@H](CO)[C@H](O)[C@H](O)[C@H]2O)[C@@H]1O[C@@H]1O[C@@H](C)[C@@H](O)[C@@H](O)[C@@H]1O (some centres unmarked) [lacto-N-fucopentaose III]
α2→3 Sialyltransferase activity, pAMoPRSAL-35F, pmol [1]: 8.1 pmol | acceptance as substrate by the α2→3 sialyltransferase (in words) [1]: can take LNFP-III as the substrate | α2→3 Sialyltransferase activity, pAMoPRSAL-35F, Relative activity [1]: 16 | α2→3 Sialyltransferase activity, pAMoPRSAW17-31F, pmol [2]: 9.4 pmol | acceptance as substrate by the α2→3 sialyltransferase (in words) [2]: can take LNFP-III as the substrate | α2→3 Sialyltransferase activity, pAMoPRSAW17-31F, Relative activity [2]: 8
